Results on six compounds are retold here after patent publication US20070185013A1, “Use of chk1 inhibitors to control cell proliferation” (ICOS CORPORATION, priority 2003, published 2007).

In one experiment the test system is tumor cells. Nature of the experiment: Cell-based proliferation (sensitization) assay (Example 2). Particulars: ratio of GI90 of the chemotherapy agent in absence to that in presence of Chk1 inhibitor. The procedure: Chk1 inhibitors were tested in a cell-based proliferation assay for the ability to sensitize tumor cells to ionizing radiation or chemotherapy agents. Chk1 inhibitors were tested in combination with 5-FU, gemicitabine, ionizing radiation, camptothecin, etoposide, hydroxyurea, cisplatin, fludarabine, Ara-C and aphidicolin. For each experiment, a serial dilution of each compound in combination with a ten-point dilution of each chemotherapy agent was included, in order to determine the concentration of chemotherapeutic required to inhibit the growth of 90% (GI90) of the cells in the presence and absence of the Chk1 inhibitor. This ratio of GI90 in the absence of Chk1 inhibitor to that in the presence of Chk1 inhibitor is called the “fold sensitization.” Fold sensitization was plotted as a function of Chk1 inhibitor concentration and the amount of drug required to yield two-fold sensitization was calculated. […] Another parameter analyzed was the fold sensitization achieved at the LD50 (the dose of compound alone that inhibits growth of 50% of cells) for the compound. These two values allow direct ranking of both the potency and toxicity of Chk1 inhibitors with respect to one another.

A further experiment deals with Chk1. Nature of the experiment: Chk1 serine 296 phosphorylation, Western blot in HT29 cells. The format is cell-based, human. As to conditions: tumor cells treated with gemcitabine; Chk1 inhibitors for 15 minutes. As for the experimental part:
Phosphorylation at this site is not inhibited by Wortinannin, which inhibits Atm and Atr. Therefore the phosphorylation of serine 296 is distinct from phosphorylation at serines 317 and 345 described in Example 12. […] Therefore, this approach may be used to monitor Chk1 activity in tumors in response to Chk1 activators. Further, this approach may be used to measure inhibition of Chk1 activation by Chk1 inhibitors.
Thus, HT 29 cells were treated with 20 μM gemcitabine for two hours. The gemcitabine was washed out of the cell growth media and cells were incubated for 22 additional hours. Protein lysates were prepared and separated by an SDS-polyacrylamide gel electrophoresis. Proteins were transferred to polyvinylidene fluoride (PVDF) membranes and probed with antisera (Cell Signalling) specific for phosphorlyated serine 296 (Cell Signalling). […] Further, HT29 cells treated with selective Chk1 inhibitors for 15 minutes show no serine 296 phosphorylation.

The next experiment concerns HT29 cells. The experiment in a line: Cell cycle phase distribution by propidium iodide DNA content. In kind it is cell-based, human. As to conditions: low-level camptothecin, 20 nM for 24 hours. The text has this: The proportion of cells in different phases of the cell cycle can be measured by those skilled in the art using any one of a variety of techniques. For example, a fluorescent DNA-binding dye, propidium iodide, can be used to distinguish cells in different cell cycle phases. Since cells in G2 have twice as much DNA as cells in G1, and S phase cells show an intermediate amount of DNA, the technique allows one to identify cells in different phases based on the DNA content of a cell. This method can be carried out on cell lines and tumor specimens (Cerra et al., Methods in Cell Biology, 33:1-12, 1990) Furthermore, cells in S phase can be labeled with the nucleotide analog, bromo-deoxyuridine (BrdU) and then fixed and stained with an fluorescent-tagged antibody to BrdU. Both of these methods employ fluorescence cytometry or fluorescence activity cell sorting (FACS) to quantify the proportion of cells staining with these fluorescent markers. […]
Two cell samples, each containing the same human carcinoma cell line (HT29) were prepared. Using propidium iodide (PI) to monitor DNA content, the percentage of cells the G1, S, and G2/M phases of the cell cycle were measured before and after contact with low levels of camptothecin. […]

`O=c1[nH]cc(F)c(=O)[nH]1` [5-FU, 5-fluorouracil]: in the experiment with tumor cells, the “Fold Sensitization to Agent by Chk1 Inhibitor” value is reported as 12 fold. For `Nc1ccn([C@@H]2O[C@H](CO)[C@@H](O)[C@@H]2O)c(=O)n1` [Ara-C, cytosine arabinoside], the “Fold Sensitization to Agent by Chk1 Inhibitor” value in the experiment on tumor cells came to 9 fold. Same read-out and setting: the figure for `N.N.[Cl][Pt][Cl]` [Cisplatin, cisplatin] is 3 fold.

As for `COc1cc([C@@H]2c3cc4c(cc3[C@@H](O[C@@H]3O[C@@H]5CO[C@@H](C)O[C@H]5[C@H](O)[C@H]3O)[C@H]3COC(=O)[C@H]23)OCO4)cc(OC)c1O` [Etoposide, etoposide], the “Fold Sensitization to Agent by Chk1 Inhibitor” value with tumor cells amounted to 3 fold. For the compound `COC[C@H]1OC(=O)c2coc3c2[C@@]1(C)C1=C(C3=O)[C@@H]2CCC(=O)[C@@]2(C)C[C@H]1OC(C)=O` [Wortinannin], in the experiment with Chk1, the “inhibition of Chk1 serine 296 phosphorylation” value is “not inhibited”. As for `CC[C@@]1(O)C(=O)OCc2c1cc1n(c2=O)Cc2cc3ccccc3nc2-1` [camptothecin], in the experiment on tumor cells, the “Fold Sensitization to Agent by Chk1 Inhibitor” value is 5 fold. For the same compound, in the experiment on HT29 cells (PI staining), the “G1 (%)” value is listed as 6.75%. Also, the “G2/M* (%)” value in the experiment with HT29 cells (combined total in G2 + M phase) is listed as 7%.
